{"source": "patent US20160168540A1", "about": "“COMPOSITION FOR MAINTAINING PLATELET FUNCTION” (KYOTO UNIVERSITY, priority 2013, published 2016)", "data": [{"biological_target": "T1, TACE (ADAM17) (Homo sapiens, UniProt P78536)", "T1 construct": "made in house; host or cells: mammalian cells or insect cells", "T1 sequence (P78536 215-824)": "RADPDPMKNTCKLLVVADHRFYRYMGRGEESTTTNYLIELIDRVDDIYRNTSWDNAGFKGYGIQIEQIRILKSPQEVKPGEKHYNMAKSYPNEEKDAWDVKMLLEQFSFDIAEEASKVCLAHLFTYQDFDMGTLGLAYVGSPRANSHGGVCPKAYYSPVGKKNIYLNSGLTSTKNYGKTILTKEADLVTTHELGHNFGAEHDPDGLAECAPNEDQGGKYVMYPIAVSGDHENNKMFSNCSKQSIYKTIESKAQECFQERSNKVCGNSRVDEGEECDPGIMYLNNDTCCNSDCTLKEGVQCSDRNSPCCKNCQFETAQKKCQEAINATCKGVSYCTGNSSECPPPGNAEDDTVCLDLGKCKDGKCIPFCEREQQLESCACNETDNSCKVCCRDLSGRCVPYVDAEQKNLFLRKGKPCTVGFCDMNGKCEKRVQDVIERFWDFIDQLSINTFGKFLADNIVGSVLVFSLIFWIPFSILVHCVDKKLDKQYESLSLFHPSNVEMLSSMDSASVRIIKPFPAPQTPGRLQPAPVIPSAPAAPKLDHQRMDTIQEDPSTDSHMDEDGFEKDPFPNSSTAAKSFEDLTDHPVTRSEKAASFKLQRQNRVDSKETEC", "assay": "TACE (ADAM17) inhibition test", "format": "biochemical", "details": "fluorescent synthetic substrate, 37° C. for 1.5 hours; read-out: TACE IC50", "source_text": "The nucleotide sequence of TACE has been reported by Moss et al. (Moss, M. L. et al., Nature 1997, vol. 385, pp. 733-736). Based on this information, the cDNA of TACE was obtained according to the prescribed method from THP-1 cells or the like, and then incorporated the cDNA into an expression vector. Next, this vector was transformed into mammalian cells or insect cells, and TACE protein was expressed. The TACE protein was isolated, and used as an enzyme. Further, a fluorescent synthetic substrate Nma(N-methylanthranilic acid)-Leu-Ala-Gln-Ala-Val-Arg-Ser-Ser-Lys(Dnp(dinitrophenyl))-D-Arg-NH2 including the TACE-cleaved sequence of a membrane-bound TNF was used as a substrate. The enzyme reaction was carried out by adding 1.8 μL of a solution of the test substance to 90 μL of a fluorescent synthetic substrate prepared with an assay buffer B (50 mM tris-hydrochloric acid buffer (pH 7.5) including 200 mM sodium chloride, 5 mM calcium chloride, 10 μM zinc sulfate, and 0.05% PLURONIC F-68), then mixing 90 μL of a TACE enzyme solution prepared with an assay buffer A (50 mM tris-hydrochloric acid buffer (pH 7.5) including 200 mM sodium chloride, 5 mM calcium chloride, 10 μM zinc sulfate, and 2 mg/mL bovine serum albumin) and reacting at 37° C. for 1.5 hours. Enzyme activity was then determined by measuring with a fluorescence intensity meter (Labsystems, Fluoroskan Ascent) at an excitation wavelength of 355 nm and a measurement wavelength of 460 nm. The 50% inhibitory concentration (IC50) of the test substances was calculated by comparing enzyme activity in the presence and the absence of the test substance to determine the inhibition rate. Further, test substances having an IC50 strength of less than 100 nM were evaluated as “A”, and test substances having an IC50 strength of 100 nM or more were evaluated as “B”.", "units": {"IC50": "nM"}, "values": [{"smiles": "Cc1cccn(CC2(c3ccc(-c4ccncc4)cc3)NC(=O)NC2=O)c1=O", "note": "(racemic) [Compound I-31, 5-[(3-methyl-2-oxopyridin-1(2H)-yl)methyl]-5-[4-(pyridin-4-yl)phenyl]imidazolidine-2,4-dione]", "IC50": "< 100"}, {"smiles": "COc1ccccc1C1(Cn2cccc(C)c2=O)NC(=O)NC1=O", "note": "(racemic) [Compound I-60]", "IC50": "≥ 100"}, {"smiles": "C=Cc1ccc(C2(Cn3cccc(C)c3=O)NC(=O)NC2=O)cc1", "note": "(racemic) [Compound I-43, 5-[(3-methyl-2-oxopyridin-1(2H)-yl)methyl]-5-(4-vinylphenyl)imidazolidine-2,4-dione]", "IC50": "< 100"}, {"smiles": "Cc1cccn(CC2(c3ccc4sccc4c3)NC(=O)NC2=O)c1=O", "note": "(racemic) [Compound I-23, 5-(benzo[b]thiophen-5-yl)-5-[(3-methyl-2-oxopyridin-1(2H)-yl)methyl]imidazolidine-2,4-dione]", "IC50": "< 100"}, {"smiles": "Cc1cccn(CC2(c3ccccn3)NC(=O)NC2=O)c1=O", "note": "(racemic) [Compound I-7, 5-[(3-methyl-2-oxopyridin-1(2H)-yl)methyl]-5-(pyridin-2-yl)imidazolidine-2,4-dione]", "IC50": "< 100"}, {"smiles": "Cc1cccn(CC2(c3ccc(Oc4ccc(F)cc4)cc3)NC(=O)NC2=O)c1=O", "note": "(racemic) [Compound I-85]", "IC50": "< 100"}, {"smiles": "Cc1cccn(CC2(c3cccc(OCc4ccccc4)c3)NC(=O)NC2=O)c1=O", "note": "(racemic) [Compound I-58]", "IC50": "< 100"}, {"smiles": "COc1ccc(OC)c(C2(Cn3cccc(C)c3=O)NC(=O)NC2=O)c1", "note": "(racemic) [Compound I-20, 5-(2,5-dimethoxyphenyl)-5-[(3-methyl-2-oxopyridin-1(2H)-yl)methyl]imidazolidine-2,4-dione]", "IC50": "< 100"}, {"smiles": "Cc1cccn(CC2(c3ccc(OC(F)(F)F)cc3)NC(=O)NC2=O)c1=O", "note": "(racemic) [Compound I-79]", "IC50": "< 100"}, {"smiles": "COc1ccc(C2(Cn3cccc(Br)c3=O)NC(=O)NC2=O)cc1", "note": "(racemic) [Compound I-52, 5-[(3-bromo-2-oxopyridin-1(2H)-yl)methyl]-5-(4-methoxyphenyl)imidazolidine-2,4-dione]", "IC50": "< 100"}, {"smiles": "COCOc1ccc(C2(Cn3cccc(C)c3=O)NC(=O)NC2=O)cc1", "note": "(racemic) [Compound I-13, 5-[4-(methoxymethoxy)phenyl]-5-[(3-methyl-2-oxopyridin-1(2H)-yl)methyl]imidazolidine-2,4-dione]", "IC50": "< 100"}, {"smiles": "O=C1NC(=O)C(Cn2cccc(Cl)c2=O)(c2ccc(F)c(F)c2)N1", "note": "(racemic) [Compound I-146]", "IC50": "< 100"}, {"smiles": "Cc1cccc(Oc2ccc(C3(Cn4cccc(C)c4=O)NC(=O)NC3=O)cc2)c1", "note": "(racemic) [Compound I-80]", "IC50": "< 100"}, {"smiles": "Cc1cccn(CC2(c3ccc(OC4CCCC4)cc3)NC(=O)NC2=O)c1=O", "note": "(racemic) [Compound I-124]", "IC50": "< 100"}, {"smiles": "Cc1cccn(CC2(c3cccnc3)NC(=O)NC2=O)c1=O", "note": "(racemic) [Compound I-8, 5-[(3-methyl-2-oxopyridin-1(2H)-yl)methyl]-5-(pyridin-3-yl)imidazolidine-2,4-dione]", "IC50": "< 100"}, {"smiles": "COc1cc(F)ccc1C1(Cn2cccc(C)c2=O)NC(=O)NC1=O", "note": "(racemic) [Compound I-21, 5-(4-fluoro-2-methoxyphenyl)-5-[(3-methyl-2-oxopyridin-1(2H)-yl)methyl]imidazolidine-2,4-dione]", "IC50": "< 100"}, {"smiles": "Cc1ccc(C2(Cn3cccc(C)c3=O)NC(=O)NC2=O)c(F)c1F", "note": "(racemic) [Compound I-128]", "IC50": "< 100"}, {"smiles": "Cc1cccn(CC2(c3ccc(C(C)C)cc3)NC(=O)NC2=O)c1=O", "note": "(racemic) [Compound I-117]", "IC50": "< 100"}, {"smiles": "Cc1cccn(CC2(c3ccc4ccccc4c3)NC(=O)NC2=O)c1=O", "note": "(racemic) [Compound I-56]", "IC50": "< 100"}, {"smiles": "Cc1cccn(CC2(c3ccc4occc4c3)NC(=O)NC2=O)c1=O", "note": "(racemic) [Compound I-22, 5-(benzofuran-5-yl)-5-[(3-methyl-2-oxopyridin-1(2H)-yl)methyl]imidazolidine-2,4-dione]", "IC50": "< 100"}, {"smiles": "O=C1NC(=O)C(Cn2cccc(Cl)c2=O)(c2ccc(Cc3ccccc3)cc2)N1", "note": "(racemic) [Compound I-150]", "IC50": "< 100"}, {"smiles": "Cc1cccn(CC2(c3cccc(C(F)(F)F)c3)NC(=O)NC2=O)c1=O", "note": "(racemic) [Compound I-19]", "IC50": "< 100"}, {"smiles": "O=C1NC(=O)C(Cn2cccc(F)c2=O)(c2ccc(-c3ccccc3)cc2)N1", "note": "(racemic) [Compound I-49, 5-([1,1′-biphenyl]-4-yl)-5-[(3-fluoro-2-oxopyridin-1(2H)-yl)methyl]imidazolidine-2,4-dione]", "IC50": "< 100"}, {"smiles": "Cc1cccn(CC2(c3ccsc3)NC(=O)NC2=O)c1=O", "note": "(racemic) [Compound I-5, 5-[(3-methyl-2-oxopyridin-1(2H)-yl)methyl]-5-(thiophen-3-yl)imidazolidine-2,4-dione]", "IC50": "< 100"}, {"smiles": "COc1ccc(F)cc1C1(Cn2cccc(C)c2=O)NC(=O)NC1=O", "note": "(racemic) [Compound I-69]", "IC50": "< 100"}, {"smiles": "Cc1cccn(CC2(c3ccc(Oc4ccccc4)c(F)c3)NC(=O)NC2=O)c1=O", "note": "(racemic) [Compound I-87]", "IC50": "< 100"}, {"smiles": "Cc1cccn(CC2(c3ccc(OC4C=CCCC4)cc3)NC(=O)NC2=O)c1=O", "note": "(racemic) [Compound I-36, 5-[4-(cyclohex-2-en-1-yloxy)phenyl]-5-[(3-methyl-2-oxopyridin-1(2H)-yl)methyl]imidazolidine-2,4-dione]", "IC50": "< 100"}, {"smiles": "COc1ccc(OC(F)(F)F)cc1C1(Cn2cccc(C)c2=O)NC(=O)NC1=O", "note": "(racemic) [Compound I-24, 5-[2-methoxy-5-(trifluoromethoxy)phenyl]-5-[(3-methyl-2-oxopyridin-1(2H)-yl)methyl]imidazolidine-2,4-dione]", "IC50": "≥ 100"}, {"smiles": "Cc1cccn(CC2(c3cccc(C#CCN(C)C)c3)NC(=O)NC2=O)c1=O", "note": "(racemic) [Compound I-71]", "IC50": "< 100"}, {"smiles": "Cc1cccn(CC2(c3ccc(Cc4ccccc4)cc3)NC(=O)NC2=O)c1=O", "note": "(racemic) [Compound I-40, 5-(4-benzylphenyl)-5-[(3-methyl-2-oxopyridin-1(2H)-yl)methyl]imidazolidine-2,4-dione]", "IC50": "< 100"}, {"smiles": "COc1ccncc1-c1ccc(C2(Cn3cccc(C)c3=O)NC(=O)NC2=O)cc1", "note": "(racemic) [Compound I-91]", "IC50": "< 100"}, {"smiles": "Cc1cccn(CC2(c3cccc(-c4ccccc4)c3)NC(=O)NC2=O)c1=O", "note": "(racemic) [Compound I-96]", "IC50": "< 100"}, {"smiles": "Cc1cccn(CC2(c3ccc4c(c3)OCO4)NC(=O)NC2=O)c1=O", "note": "(racemic) [Compound I-65]", "IC50": "< 100"}, {"smiles": "Cc1cccn(CC2(c3cccc(C#CC(C)(C)C)c3)NC(=O)NC2=O)c1=O", "note": "(racemic) [Compound I-63]", "IC50": "≥ 100"}, {"smiles": "N#Cc1ccc(C2(Cn3cccc(F)c3=O)NC(=O)NC2=O)cc1", "note": "(racemic) [Compound I-134]", "IC50": "< 100"}, {"smiles": "COc1ccc(C2(Cn3cccc(Cl)c3=O)NC(=O)NC2=O)cc1", "note": "(racemic) [Compound I-137]", "IC50": "< 100"}, {"smiles": "Cc1cccn(CC2(c3ccncc3)NC(=O)NC2=O)c1=O", "note": "(racemic) [Compound I-55]", "IC50": "< 100"}, {"smiles": "O=C1NC(=O)C(Cn2cccc(Cl)c2=O)(c2ccccc2)N1", "note": "(racemic) [Compound I-50, 5-[(3-chloro-2-oxopyridin-1(2H)-yl)methyl]-5-phenylimidazolidine-2,4-dione]", "IC50": "< 100"}, {"smiles": "Cc1cccn(CC2(c3ccc(-c4ccccn4)cc3)NC(=O)NC2=O)c1=O", "note": "(racemic) [Compound I-92]", "IC50": "< 100"}, {"smiles": "Cc1cccn(CC2(c3ccc4c(c3)CCCO4)NC(=O)NC2=O)c1=O", "note": "(racemic) [Compound I-26, 5-(chroman-6-yl)-5-[(3-methyl-2-oxopyridin-1(2H)-yl)methyl]imidazolidine-2,4-dione]", "IC50": "< 100"}, {"smiles": "COc1ccc(C2(Cn3cccc(C(F)(F)F)c3=O)NC(=O)NC2=O)cc1", "note": "(racemic) [Compound I-141]", "IC50": "< 100"}, {"smiles": "Cc1cccn(CC2(c3ccc(Sc4ccccc4)c(F)c3)NC(=O)NC2=O)c1=O", "note": "(racemic) [Compound I-103]", "IC50": "< 100"}, {"smiles": "COc1cccn(CC2(c3ccccc3)NC(=O)NC2=O)c1=O", "note": "(racemic) [Compound I-143]", "IC50": "≥ 100"}, {"smiles": "COc1cc(C)c(Cl)cc1C1(Cn2cccc(C)c2=O)NC(=O)NC1=O", "note": "(racemic) [Compound I-70]", "IC50": "≥ 100"}, {"smiles": "O=C1NC(=O)C(Cn2cccc(C(F)(F)F)c2=O)(c2ccccc2)N1", "note": "(racemic) [Compound I-140]", "IC50": "< 100"}, {"smiles": "COc1ccccc1Oc1ccc(C2(Cn3cccc(C)c3=O)NC(=O)NC2=O)cc1F", "note": "(racemic) [Compound I-114]", "IC50": "< 100"}, {"smiles": "Cc1cccn(CC2(c3ccc(F)cc3)NC(=O)NC2=O)c1=O", "note": "(racemic) [Compound I-15, 5-(4-fluorophenyl)-5-[(3-methyl-2-oxopyridin-1(2H)-yl)methyl]imidazolidine-2,4-dione]", "IC50": "< 100"}, {"smiles": "Cc1cc(C2(Cn3cccc(C)c3=O)NC(=O)NC2=O)ccc1OC1C=CCCC1", "note": "(stereo not drawn) [Compound I-38]", "IC50": "< 100"}]}]}
